Results on 32 compounds are retold here after patent US11149020B2, “MAP kinase modulators and uses thereof” (The Trustees of Columbia University in the City of New York, priority 2013, dated 2021).

Where two headings read alike, the source gives them in different places.

The target of assay [1] is human p38α MAPK (Homo sapiens (Human), UniProt Q16539). As to the kind of experiment: Kinase assay, concentration dependent inhibition of p38α MAPK. In kind it is biochemical. Conditions: for Ki: kinetic analyses.
human p38α MAPK, sequence (Q16539 whole entry): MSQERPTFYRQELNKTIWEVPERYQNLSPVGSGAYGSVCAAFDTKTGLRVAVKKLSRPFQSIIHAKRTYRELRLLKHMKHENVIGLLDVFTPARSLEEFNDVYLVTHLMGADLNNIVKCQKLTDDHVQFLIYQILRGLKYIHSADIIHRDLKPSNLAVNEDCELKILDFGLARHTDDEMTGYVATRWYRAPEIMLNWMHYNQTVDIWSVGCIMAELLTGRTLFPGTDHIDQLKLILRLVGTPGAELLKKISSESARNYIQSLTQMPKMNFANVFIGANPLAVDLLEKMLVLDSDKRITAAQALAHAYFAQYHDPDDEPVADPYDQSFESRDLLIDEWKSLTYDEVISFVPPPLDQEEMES
Assay [2] has as its target CK-1δ (Homo sapiens (Human), UniProt P48730). As to the kind of experiment: Kinase assay, concentration dependent inhibition of CK-1δ.
The test system of assay [3] is APP/PS1 mice. As to the kind of experiment: LTP in APP/PS1 mice. In kind it is in vivo, mouse. Conditions: 2.5 mg/kg, daily, p.o., from 2 months until 3-4 months of age.
Assay [4] has as its system APP/PS1 mice. As to the kind of experiment: RAWM in APP/PS1 mice. The settings on record: 2.5 mg/kg, daily, p.o., from 2 months of age.
Assay [5] concerns APP/PS1 mice. The assay can be described thus: Fear conditioning (contextual and cued) in APP/PS1 mice. The settings on record: 2.5 mg/kg, daily, p.o., from 2 months of age.

CK-1δ, sequence (P48730 whole entry): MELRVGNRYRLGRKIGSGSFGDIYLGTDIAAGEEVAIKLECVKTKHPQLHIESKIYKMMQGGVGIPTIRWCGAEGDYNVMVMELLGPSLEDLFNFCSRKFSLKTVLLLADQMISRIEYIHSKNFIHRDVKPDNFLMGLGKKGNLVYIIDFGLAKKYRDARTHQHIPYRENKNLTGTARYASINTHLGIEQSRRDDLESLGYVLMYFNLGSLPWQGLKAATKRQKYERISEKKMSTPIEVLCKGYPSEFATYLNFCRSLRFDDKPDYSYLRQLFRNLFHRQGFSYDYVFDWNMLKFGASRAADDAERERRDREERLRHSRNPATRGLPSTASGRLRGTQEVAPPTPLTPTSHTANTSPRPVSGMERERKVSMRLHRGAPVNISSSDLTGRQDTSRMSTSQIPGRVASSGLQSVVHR

`CN1CCN(c2cc(-c3ccncc3)c(-c3cccc4ccccc34)nn2)CC1` [11 (MW-122), 6-(4-methylpiperazin-1-yl)-3-(naphthalen-1-yl)-4-(pyridin-4-yl)pyridazine]: in assay [1], the half-maximal inhibitory concentration (IC50) (in general, the concentration at which inhibition is half-maximal) worked out at 185 nM and the inhibition constant (Ki) (in general, the equilibrium dissociation constant of an inhibitor or competing ligand from its target) was 98 nM. In addition, the half-inhibitory concentration (IC50) in assay [2] (read-out: Ck1δ IC50) was more than 10000 nM.

Consider `CN1CCN(c2cc(-c3ccncc3)c(-c3cccc4cc(F)ccc34)nn2)CC1` [54 (MW-197), 3-(6-fluoronaphthalen-1-yl)-6-(4-methylpiperazin-1-yl)-4-(pyridin-4-yl)pyridazine], for which the IC50 in assay [1] stood at 669 nM; in assay [2] (read-out: Ck1δ IC50), 136000 nM.

For `CN(C)c1cc(-c2ccncc2)c(-c2cc(F)cc3cccnc23)nn1` [21 (MW-165), 6-(6-fluoroquinolin-8-yl)-N,N-dimethyl-5-(pyridin-4-yl)pyridazin-3-amine], in assay [1], the IC50 is more than 1600 nM.

`c1ccc2cc(-c3nnc(NC4CC4)cc3-c3ccncc3)ccc2c1` [35 (MW-153), N-cyclopropyl-6-(naphthalen-2-yl)-5-(pyridin-4-yl)pyridazin-3-amine] returned a half-maximal inhibitory concentration (IC50) in assay [1] of 189 nM.

Turning to `CC(C)Nc1cc(-c2ccncc2)c(-c2cccc3ccccc23)nn1` [25 (MW-031), N-isopropyl-6-(naphthalen-1-yl)-5-(pyridin-4-yl)pyridazin-3-amine], the IC50 was 162 nM in assay [1] and more than 10000 nM in assay [2] (read-out: Ck1δ IC50).

Consider `CN(C)c1cc(-c2ccncc2)c(-c2cccc3cnccc23)nn1` [20 (MW-082), 6-(isoquinolin-5-yl)-N,N-dimethyl-5-(pyridin-4-yl)pyridazin-3-amine], for which the values for the concentration for half-maximal inhibition (IC50) in assay [1] and in assay [2] (read-out: Ck1δ IC50) were more than 3200 nM and more than 10000 nM, respectively.

Consider `CN1CCN(c2cc(-c3ccncc3F)c(-c3cccc4ccccc34)nn2)CC1` [14 (MW-109), 4-(3-fluoropyridin-4-yl)-6-(4-methylpiperazin-1-yl)-3-(naphthalen-1-yl)pyridazine], for which the concentration for half-maximal inhibition (IC50) in assay [1] was 131 nM; in assay [2] (read-out: Ck1δ IC50), more than 10000 nM.

For the compound `CNc1cc(-c2ccncc2)c(-c2ccc3ccccc3c2)nn1` [16 (MW-200), N-methyl-6-(naphthalen-2-yl)-5-(pyridin-4-yl)pyridazin-3-amine], in assay [1], it took 175 nM to reach half-maximal inhibition (IC50) and the inhibitory constant (Ki) stood at 100 nM. Further, the half-inhibitory concentration (IC50) in assay [2] (read-out: Ck1δ IC50) amounted to 4980 nM.

In the case of `CCCN(C)c1cc(-c2ccncc2)c(-c2cccc3ccccc23)nn1` [24 (MW-010), N-methyl-6-(naphthalen-1-yl)-N-propyl-5-(pyridin-4-yl)pyridazin-3-amine], the concentration for half-maximal inhibition (IC50) is 188 nM in assay [1] and more than 10000 nM in assay [2].

Regarding `CN1CCN(c2cc(-c3ccncc3)c(-c3cc(F)cc4ccccc34)nn2)CC1` [53 (MW-059), 3-(3-fluoronaphthalen-1-yl)-6-(4-methylpiperazin-1-yl)-4-(pyridin-4-yl)pyridazine], the half-maximal inhibitory concentration (IC50) was more than 20000 nM in assay [1] and 119000 nM in assay [2] (read-out: Ck1δ IC50).

Consider `CN1CCN(c2cc(-c3ccncc3)c(-c3cccc4c(F)cccc34)nn2)CC1` [55 (MW-063), 3-(5-fluoronaphthalen-1-yl)-6-(4-methylpiperazin-1-yl)-4-(pyridin-4-yl)pyridazine], for which the concentration for half-maximal inhibition (IC50) was 526 nM in assay [1] and 32500 nM in assay [2] (read-out: Ck1δ IC50).

Regarding `c1ccc2cc(-c3nnc(N4CCOCC4)cc3-c3ccncc3)ccc2c1` [33 (MW-152), 4-(6-(naphthalen-2-yl)-5-(pyridin-4-yl)pyridazin-3-yl)morpholine], the half-maximal inhibitory concentration (IC50) in assay [1] was 481 nM.

In assay [1], `CN1CCC(c2cc(-c3ccncc3)c(-c3ccc4ccccc4c3)nn2)CC1` [36 (MW-164), 6-(1-methylpiperidin-4-yl)-3-(naphthalen-2-yl)-4-(pyridin-4-yl)pyridazine] displayed an IC50 of 224 nM and an inhibition constant Ki of 101 nM. In assay [2], this compound showed an IC50 of 11200 nM.

As for `c1ccc2c(-c3nnc(NC4CC4)cc3-c3ccncc3)cccc2c1` [13 (MW-107), N-cyclopropyl-6-(naphthalen-1-yl)-5-(pyridin-4-yl)pyridazin-3-amine], in assay [1], it took 264 nM to reach half-maximal inhibition (IC50) and affinity was put at a Ki of 91 nM. Further, in assay [2] (read-out: Ck1δ IC50), the IC50 was more than 10000 nM.

As for `Fc1cnccc1-c1cc(C2CC2)nnc1-c1ccc2ccccc2c1` [10 (MW-167), 6-Cyclopropyl-4-(3-fluoropyridin-4-yl)-3-(naphthalen-2-yl)pyridazine], in assay [1], the IC50 was determined as 307 nM and the affinity corresponds to a Ki of 86 nM. Moreover, in assay [2] (read-out: Ck1δ IC50), the half-inhibitory concentration (IC50) is more than 10000 nM.

Consider `CN(C)c1cc(-c2ccncc2)c(-c2ccc(F)c3ccccc23)nn1` [17 (MW-078), 6-(4-fluoronaphthalen-1-yl)-N,N-dimethyl-5-(pyridin-4-yl)pyridazin-3-amine], for which the results for the IC50 in assay [1] and in assay [2] (read-out: Ck1δ IC50) were 1780 nM and more than 10000 nM, respectively.

In the case of `CCN1CCN(c2cc(-c3ccncc3)c(-c3ccc4ccccc4c3)nn2)CC1` [62 (MW-026), 6-(4-ethylpiperazin-1-yl)-3-(naphthalen-2-yl)-4-(pyridin-4-yl)pyridazine], the IC50 in assay [1] stood at 520 nM; in assay [2] (read-out: Ck1δ IC50) it was 4990 nM.

On to `CN1CCN(c2cc(-c3ccncc3)c(-c3ccc4cccc(F)c4c3)nn2)CC1` [52 (MW-032), 3-(8-Fluoronaphthalen-2-yl)-6-(4-methylpiperazin-1-yl)-4-(pyridin-4-yl)pyridazine], for which the figures for the IC50 in assay [1] and in assay [2] (read-out: Ck1δ IC50) were 735 nM and 17900 nM, respectively.

For the compound `CN1CCN(c2cc(-c3ccncc3)c(-c3cccc4[nH]ccc34)nn2)CC1` [29 (MW-108), 4-(6-(4-methylpiperazin-1-yl)-4-(pyridin-4-yl)pyridazin-3-yl)-1H-indole], the values for the 50% inhibitory concentration (IC50) in assay [1] and in assay [2] (read-out: Ck1δ IC50) were 3070 nM and 6130 nM, respectively.

As for `CC(C)Nc1cc(-c2ccncc2)c(-c2ccc3ccccc3c2)nn1` [26 (MW-025), N-isopropyl-6-(naphthalen-2-yl)-5-(pyridin-4-yl)pyridazin-3-amine], the half-inhibitory concentration (IC50) in assay [1] was 130 nM; in assay [2] (read-out: Ck1δ IC50), 2620 nM.

As to `CN(C)c1cc(-c2ccncc2)c(-c2cccc3ccc(F)cc23)nn1` [18 (MW-085), 6-(7-fluoronaphthalen-1-yl)-N,N-dimethyl-5-(pyridin-4-yl)pyridazin-3-amine], it took 1170 nM to reach half-maximal inhibition in assay [1] (IC50).

Take `c1cc(-c2nnc(N3CCNCC3)cc2-c2ccncc2)c2cc[nH]c2c1` [30 (MW-126), 4-(6-(piperazin-1-yl)-4-(pyridin-4-yl)pyridazin-3-yl)-1H-indole]: the IC50 in assay [1] came out at 753 nM; in assay [2] (read-out: Ck1δ IC50), 2630 nM.

Consider `CN1CCN(c2cc(-c3ccncc3F)c(-c3ccc4ccccc4c3)nn2)CC1` [37 (MW-149), 4-(3-fluoropyridin-4-yl)-6-(4-methylpiperazin-1-yl)-3-(naphthalen-2-yl)pyridazine], for which the figures for the half-inhibitory concentration (IC50) in assay [1] and in assay [2] (read-out: Ck1δ IC50) were 235 nM and 4620 nM, respectively.

On to `CN(C)c1cc(-c2ccncc2)c(-c2ccc3[nH]ccc3c2)nn1` [22 (MW-066), 6-(1H-indol-5-yl)-N,N-dimethyl-5-(pyridin-4-yl)pyridazin-3-amine], for which the IC50 in assay [1] worked out at 369 nM; in assay [2] (read-out: Ck1δ IC50), 4280 nM.

Consider `CCN(CC)c1cc(-c2ccncc2)c(-c2cccc3ccccc23)nn1` [23 (MW-033), N,N-diethyl-6-(naphthalen-1-yl)-5-(pyridin-4-yl)pyridazin-3-amine], for which the values for the concentration for half-maximal inhibition (IC50) in assay [1] and in assay [2] (read-out: Ck1δ IC50) were 162 nM and more than 10000 nM, respectively.

Take `c1ccc2cc(-c3nnc(C4CC4)cc3-c3ccncc3)ccc2c1` [9 (MW-125), 6-Cyclopropyl-4-(pyridin-4-yl)-3-(naphthalen-2-yl)pyridazine]: the values for the IC50 in assay [1] and in assay [2] (read-out: Ck1δ IC50) were 412 nM and more than 10000 nM, respectively. In assay [1], the Ki worked out at 127 nM. Moreover, the “LTP defect in APP/PS1 mice” value in assay [3] was “rescue defects in LTP”. In addition, the “spatial/reference memory defect (RAWM) in APP/PS1 mice” value in assay [4] is “rescue defects in spatial memory”. For the same compound, in assay [5], the “contextual fear memory defect in APP/PS1 mice” value is given as “rescue the defect in contextual fear learning”.

For the compound `CNc1cc(-c2ccncc2)c(-c2cccc3ccccc23)nn1` [15 (MW-156), N-methyl-6-(naphthalen-1-yl)-5-(pyridin-4-yl)pyridazin-3-amine], the half-maximal inhibitory concentration (IC50) in assay [1] was 289 nM; in assay [2] (read-out: Ck1δ IC50), more than 10000 nM. Moreover, in assay [1], affinity was put at a Ki of 276 nM.

With `c1ccc2c(-c3nnc(N4CCCCC4)cc3-c3ccncc3)cccc2c1` [12 (MW-124), 3-(naphthalen-1-yl)-6-(piperidin-1-yl)-4-(pyridin-4-yl)pyridazine], the results for the IC50 in assay [1] and in assay [2] (read-out: Ck1δ IC50) were 191 nM and more than 10000 nM, respectively.

Turning to `COc1ccc2ccccc2c1-c1nnc(N(C)C)cc1-c1ccncc1` [19 (MW-155), 6-(2-methoxynaphthalen-1-yl)-N,N-dimethyl-5-(pyridin-4-yl)pyridazin-3-amine], the half-inhibitory concentration (IC50) in assay [1] is more than 1600 nM.

Turning to `CN(C)c1cnc(-c2cccc3ccccc23)c(-c2ccncc2)n1` [44 (MW-064), N,N-dimethyl-5-(naphthalen-1-yl)-6-(pyridin-4-yl)pyrazin-2-amine], the values for the IC50 in assay [1] and in assay [2] (read-out: Ck1δ IC50) were 456 nM and more than 10000 nM, respectively. The compound further came in with an inhibitory constant (Ki) in assay [1] of 343 nM.

In the case of `CN1CCN(c2cc(-c3ccncc3)c(-c3ccc4ccc(F)cc4c3)nn2)CC1` [50 (MW-017), 3-(7-Fluoronaphthalen-2-yl)-6-(4-methylpiperazin-1-yl)-4-(pyridin-4-yl)pyridazine], the IC50 is 974 nM in assay [1] and 16800 nM in assay [2] (read-out: Ck1δ IC50).

In assay [1], `c1ccc2c(-c3nnc(C4CC4)cc3-c3ccncc3)cccc2c1` [7 (MW-077), 6-cyclopropyl-3-(naphthalen-1-yl)-4-(pyridin-4-yl)pyridazine] showed a 50% inhibitory concentration (IC50) of 419 nM and a Ki of 186 nM. Besides, the “LTP defect in APP/PS1 mice” value in assay [3] was “rescue defects in LTP”. In addition, in assay [4], the “spatial/reference memory defect (RAWM) in APP/PS1 mice” value is “rescue defects in spatial memory”. Also, the “contextual fear memory defect in APP/PS1 mice” value in assay [5] is given as “rescue the defect in contextual fear learning”. Moreover, the IC50 in assay [2] (read-out: Ck1δ IC50) is more than 10000 nM.
